US11076594B2, “Pyrazolone compound or salt thereof, preparation method therefor, herbicide composition and use thereof” (QINGDAO KINGAGROOT CHEMICAL COMPOUNDS CO., LTD., priority 2015, dated 2021)

Assays:
Assay type in all cases: in vivo
Conditions in all cases: post-emergence spray at 4-5 leaf stage, 250 g/ha active ingredient with 450 kg/ha water, rated after 3 weeks in greenhouse
rice = experiment: post-emergence stage experiment, crop (Table 1)
Experimental: (§1) The activity level standard of harmful plant destruction (i.e. growth control rate) is as follows: The above described growth control rate is fresh weight control rate. Monocotyledonous and dicotyledonous weed seeds and main crop seeds (i.e. wheat, corn, rice, soybean, cotton, oilseed, millet and sorghum.) were put into a plastic pot loaded with soil. Then covered with 0.5-2 cm soil, the seeds were allowed to grow in good greenhouse environment. The test plants were treated at 4-5 leaf stage 2-3 weeks after sowing. The test compounds of the invention were dissolved with acetone respectively, then added with 80 tween and diluted by certain amount of water to certain concentration. The solution was sprayed to the plants with a sprayer. Then the plants were cultured for 3 weeks in the greenhouse.

foxtail = experiment: weed control effect in post-emergence stage (Table 1); design: key: Level 10: completely dead; Level 9: above 95% growth control rate; Level 8: above 90% growth control rate; Level 7: above 80% growth control rate; Level 6: above 70% growth control rate; Level 5: above 60% growth control rate; Level 4: above 50% growth control rate; Level 3: above 20% growth control rate; Level 2: 5%-20% growth control rate; Level 1: below 5% growth control rate
Experimental: as §1

crab grass = experiment: as above; design: key: Level 10: completely dead; Level 9: above 95% growth control rate; Level 8: above 90% growth control rate; Level 7: above 80% growth control rate; Level 6: above 70% growth control rate; Level 5: above 60% growth control rate; Level 4: above 50% growth control rate; Level 3: above 20% growth control rate; Level 2: 5%-20% growth control rate; Level 1: below 5% growth control rate
Experimental: as §1

Indian mallow = experiment: as above; design: key: Level 10: completely dead; Level 9: above 95% growth control rate; Level 8: above 90% growth control rate; Level 7: above 80% growth control rate; Level 6: above 70% growth control rate; Level 5: above 60% growth control rate; Level 4: above 50% growth control rate; Level 3: above 20% growth control rate; Level 2: 5%-20% growth control rate; Level 1: below 5% growth control rate
Experimental: as §1

rorippa indica = experiment: as above; design: key: Level 10: completely dead; Level 9: above 95% growth control rate; Level 8: above 90% growth control rate; Level 7: above 80% growth control rate; Level 6: above 70% growth control rate; Level 5: above 60% growth control rate; Level 4: above 50% growth control rate; Level 3: above 20% growth control rate; Level 2: 5%-20% growth control rate; Level 1: below 5% growth control rate
Experimental: as §1

echinochloa = experiment: as above; design: key: Level 10: completely dead; Level 9: above 95% growth control rate; Level 8: above 90% growth control rate; Level 7: above 80% growth control rate; Level 6: above 70% growth control rate; Level 5: above 60% growth control rate; Level 4: above 50% growth control rate; Level 3: above 20% growth control rate; Level 2: 5%-20% growth control rate; Level 1: below 5% growth control rate
Experimental: as §1

corn = experiment: post-emergence stage experiment, crop (Table 1)
Experimental: as §1

wheat = experiment: post-emergence stage experiment, crop (Table 1)
Experimental: as §1

bidens bipinnata = experiment: weed control effect in post-emergence stage (Table 1); design: key: Level 10: completely dead; Level 9: above 95% growth control rate; Level 8: above 90% growth control rate; Level 7: above 80% growth control rate; Level 6: above 70% growth control rate; Level 5: above 60% growth control rate; Level 4: above 50% growth control rate; Level 3: above 20% growth control rate; Level 2: 5%-20% growth control rate; Level 1: below 5% growth control rate
Experimental: as §1

Compound | effect on crop, Rice (level) (rice) | weed control effect, Green foxtail (level) (foxtail) | weed control effect, Crab grass (level) (crab grass) | weed control effect, Indian mallow (level) (Indian mallow) | weed control effect, Rorippa indica (level) (rorippa indica) | weed control effect, Echinochloa (level) (echinochloa) | effect on crop, Corn (level) (corn) | effect on crop, Wheat (level) (wheat) | weed control effect, Bidens bipinnata (level) (bidens bipinnata)
Cc1nn(C)cc1C(=O)Oc1c(C(=O)c2ccc(C(F)(F)F)c(-n3cccn3)c2Cl)c(C2CC2)nn1C [Compound 075] | 7 (Level 7: above 80% growth control rate) | 10 | 4 (Level 4: above 50% growth control rate) | 10 | 10 | 6 (Level 6: above 70% growth control rate) | 3 (Level 3: above 20% growth control rate) | 2 (Level 2: 5%-20% growth control rate) | 
Cc1cnn(-c2c(C(F)(F)F)ccc(C(=O)c3c(C4CC4)nn(C)c3OC(=O)c3cnn(C)c3)c2Cl)c1 [Compound 091] | 6 (Level 6: above 70% growth control rate) | 7 (Level 7: above 80% growth control rate) | 2 (Level 2: 5%-20% growth control rate) | 10 |  | 6 (Level 6: above 70% growth control rate) | 1 (Level 1: below 5% growth control rate) | 1 (Level 1: below 5% growth control rate) | 5 (Level 5: above 60% growth control rate)
Cn1cc(C(=O)Oc2c(C(=O)c3ccc(C(F)(F)F)c(N4CCCC4=O)c3Cl)cnn2C)cn1 [Compound 017] | 7 (Level 7: above 80% growth control rate) | 10 | 10 | 10 |  | 6 (Level 6: above 70% growth control rate) | 4 (Level 4: above 50% growth control rate) | 1 (Level 1: below 5% growth control rate) | 5 (Level 5: above 60% growth control rate)
Cc1cnn(-c2c(C(F)(F)F)ccc(C(=O)c3cnn(C)c3OC(=O)c3cnn(C)c3)c2Cl)c1 [Compound 083] | 2 (Level 2: 5%-20% growth control rate) | 8 (Level 8: above 90% growth control rate) | 6 (Level 6: above 70% growth control rate) | 10 |  | 6 (Level 6: above 70% growth control rate) | 4 (Level 4: above 50% growth control rate) | 0 | 5 (Level 5: above 60% growth control rate)
Cc1nn(C)cc1C(=O)Oc1c(C(=O)c2ccc(C(F)(F)F)c(N3CCCCCC3=O)c2Cl)c(C2CC2)nn1C [Compound 062] | 5 (Level 5: above 60% growth control rate) | 3 (Level 3: above 20% growth control rate) | 8 (Level 8: above 90% growth control rate) | 10 | 10 | 7 (Level 7: above 80% growth control rate) | 1 (Level 1: below 5% growth control rate) | 3 (Level 3: above 20% growth control rate) | 
Cn1nc(C2CC2)c(C(=O)c2ccc(C(F)(F)F)c(N3CCCCCC3=O)c2Cl)c1O [Compound 059] | 3 (Level 3: above 20% growth control rate) | 9 (Level 9: above 95% growth control rate) | 5 (Level 5: above 60% growth control rate) | 10 | 10 | 6 (Level 6: above 70% growth control rate) | 1 (Level 1: below 5% growth control rate) | 2 (Level 2: 5%-20% growth control rate) | 
Cc1cc(C)n(-c2c(C(F)(F)F)ccc(C(=O)c3c(C)nn(C)c3O)c2Cl)n1 [Compound 093] | 0 | 2 (Level 2: 5%-20% growth control rate) | 2 (Level 2: 5%-20% growth control rate) | 5 (Level 5: above 60% growth control rate) | 0 | 5 (Level 5: above 60% growth control rate) |  | 0 | 5 (Level 5: above 60% growth control rate)
Cc1cnn(-c2c(C(F)(F)F)ccc(C(=O)c3c(C)nn(C)c3OC(=O)c3cnn(C)c3)c2Cl)c1 [Compound 087] | 6 (Level 6: above 70% growth control rate) | 10 | 9 (Level 9: above 95% growth control rate) | 10 |  | 6 (Level 6: above 70% growth control rate) | 4 (Level 4: above 50% growth control rate) | 0 | 5 (Level 5: above 60% growth control rate)
Cn1cc(C(=O)Oc2c(C(=O)c3ccc(C(F)(F)F)c(-n4cccn4)c3Cl)cnn2C)cn1 [Compound 066] | 3 (Level 3: above 20% growth control rate) | 10 | 6 (Level 6: above 70% growth control rate) | 10 |  | 6 (Level 6: above 70% growth control rate) | 3 (Level 3: above 20% growth control rate) | 0 | 6 (Level 6: above 70% growth control rate)
CC(=O)Nc1c(C(F)(F)F)ccc(C(=O)c2c(C)nn(C)c2O)c1Cl [Compound 002] | 7 (Level 7: above 80% growth control rate) | 7 (Level 7: above 80% growth control rate) | 4 (Level 4: above 50% growth control rate) | 10 | 9 (Level 9: above 95% growth control rate) | 8 (Level 8: above 90% growth control rate) |  | 5 (Level 5: above 60% growth control rate) | 8 (Level 8: above 90% growth control rate)
